From US10245847B2, “Reaction solution and ink jet recording method” (Seiko Epson Corporation, priority 2016, dated 2019)

Tests used:
[1] = log P value (water octanol distribution coefficient) of organic solvents
From the text: Here, regarding several organic solvents, a log P value (water octanol distribution coefficient) will be described below. […] Note that, numbers in parentheses indicate log P values.
Here, “log P value” means an index indicating the hydrophobicity of the compound. The log P value indicates the ratio of the solutes distributed in these two layers in the octanol/water system. In other words, the larger the log P value of the solute is, the higher the hydrophobicity is, and it dissolves well in the octanol phase. Further, the fact that the log P values of the two kinds of substances are approximate means that the hydrophobicity of each is similar. The log P value can be obtained by, for example, a flask shaking method in which a solute and two kinds of solvents are actually put into a flask and are stirred well, and an HPLC method using high performance liquid chromatography (HPLC).

[2] = degree of solubility with respect to an aqueous solution having a concentration of 2-pyrrolidone of 20% by mass; settings: 20% by mass 2-pyrrolidone aqueous solution, 25° C.
[3] = LogP, Table 2, organic solvents of the reaction solution
[4] = LogP, Table 3, organic solvents of the reaction solution

Row | Compound | logP [1] | Solubility to 2-pyrrolidone aqueous solution ([2]; Table 2) [%] | Solubility to 2-pyrrolidone aqueous solution ([2]; Table 3) [%] | also measured
1 | CCC(O)CO (stereo not drawn) [1,2-butanediol] |  |  |  | logP ([1]; octanol/water): 0.06; Solubility to 2-pyrrolidone aqueous solution ([2]; Table 1): ≥1%
2 | COC(C)CCO (stereo not drawn) [3-methoxy-1-butanol] | 0.07 | ≥1 | ≥1 | 
3 | COC(C)(C)CCO [3-methoxy-3-methylbutanol] | -0.63 |  |  | 
4 | COCCC(=O)N(C)C [3-methoxy-N,N-dimethyl propanamide] |  |  |  | LogP [1]: 0.73
5 | CC(=O)OCCOC(C)=O [Ethylene glycol diacetate] | 0.4 |  |  | LogP [1]: 0.40
6 | OCC(O)CO [Glycerin] |  |  |  | LogP [1]: −1.76
7 | CCC(=O)N(C)C [N,N-dimethyl propionamide] | 0.46 |  | ≥1 | 
8 | CCCCOCCOCCOCCCC [diethylene glycol di-n-butyl ether] | 1.92 |  |  | LogP [1]: 1.92
9 | CCOCCOCCOC [diethylene glycol ethyl methyl ether] | 0.69 | ≥1 | ≥1 | 
10 | CCCCOCCOCCO [diethylene glycol monobutyl ether] | 1.19 |  |  | 
11 | COCCOCCO [diethylene glycol monomethyl ether] |  | ≥1 | ≥1 | logP [1, 3]: -1.18; logP [1, 4]: -1.18
12 | CCCCCCOCCO [ethylene glycol mono-n-hexyl ether] | 1.57 | ≥1 | ≥1 | 
13 | CCCCOCCOC(C)=O [ethylene glycol monobutyl ether acetate] |  | ≥1 | ≥1 | logP ([1]; octanol/water): 1.79
14 | CC(=O)OCC(C)OC(C)=O (stereo not drawn) [propylene glycol diacetate] | 0.74 |  |  | 
15 | CCC(=O)OCC(C)OC(=O)CC (stereo not drawn) [propylene glycol dipropionate] | 1.76 |  |  | 
16 | CCCCOCC(C)O (stereo not drawn) [propylene glycol monobutyl ether] | 1.19 | ≥1 | ≥1 | 
17 | CCCOCC(C)O (stereo not drawn) [propylene glycol monopropyl ether] | -0.81 |  |  | 
18 | CC(O)CO (stereo not drawn) [propylene glycol] | -1.4 |  |  | 
19 | COCCOCCOCCOC [triethylene glycol dimethyl ether] | -0.67 |  |  | 
20 | CCCCOCCOCCOCCO [triethylene glycol monobutyl ether] | 0.51 |  |  | 
21 | O=C1CCCO1 [γ-butyrolactone] |  | ≥1 | ≥1 | logP [1, 3]: -0.64; logP [1, 4]: -0.64; logP ([1]; log P value (water octanol distribution coefficient), octanol/water): -0.64
22 | polyethylene glycol monomethyl ether |  | ≥1 | ≥1 | LogP [1]: 0.80
